Measurements: patent EP4775570A1, “CYP11A1 INHIBITOR, PREPARATION METHOD THEREFOR AND USE THEREOF” (Shenzhen Zhongge Biological Technology Co., Ltd., priority 2023, dated 2025)

How the values were obtained:
[1] = test system: testosterone, progesterone, corticosterone; experiment: LC-MS detection of testosterone, progesterone and corticosterone in mouse tumors and adrenal glands; type: in vivo; settings: VCaP model; for secretion of testosterone, progesterone and corticosterone in tumors and adrenal glands (in words): mouse tumors and adrenal glands
Excerpt: (§1) • Mouse tumors were homogenized using PBS in a 1:5 ratio (tumor weight (g): PBS volume (mL), w/v); • Mouse adrenal glands were homogenized using PBS in a 1:10 ratio (adrenal gland weight (g): PBS volume (mL), w/v); • Standard sample: testosterone (LGC, C17322500), progesterone (MCE, HY-N0437), adrenal ketone (MCE, HY-B1618), and standard solution of test substance.
Experiment procedures: since the three markers, i.e., testosterone, progesterone, and adrenal ketone, are all endogenous substances and present in the blank matrix as well, PBS was alternatively used as matrix in the production of the standard curve.
Testosterone: multiple reaction monitoring (MRM) method was used for detecting the concentrations of testosterone in mouse tumors and adrenal glands. Mass spectrum: AB Sciex Triple Quad 6500+; liquid chromatography: Shimadzu 40A, column: Waters XBridge BEH C18 2.5 µm 2.1*50mm, testosterone ion pair: 289.4/97.2. Both tumor and adrenal tissues were treated with methanol as precipitant and tolbutamide as internal standard for sample pretreatment, with linear range in 50-50,000pg/mL.
Progesterone and corticosterone: multi-reaction detection method (MRM) was used for detecting the concentrations of progesterone and corticosterone in mouse tumors and adrenal glands. Mass spectrum: AB Sciex Triple Quad 6500+; liquid chromatography: Shimadzu 40A, column: Waters XSelect HSS T3 2.5 µm 2.1*50mm, progesterone ion pair: 315.4/97.2, adrenone ion pair: 347.4/121.3. For tumor tissues, acetonitrile was used as precipitant and propranolol diclofenac as internal standard for sample pretreatment, with linear ranges in 0.05-10 ng/mL of progesterone and 0.10-20 ng/mL of corticosterone. For adrenal tissues, methanol was used as precipitant and propranolol diclofenac as internal standard for sample pretreatment, with linear ranges in 5-2,500 ng/mL of progesterone and 5-2,500 ng/mL of corticosterone.

[2] = LC-MS detection of concentrations of tested compounds in mouse plasma, tumors and adrenal glands; type: in vivo; settings: compound + prednisone group vs ODM-208 + prednisone group of the VCaP model
Excerpt: as §1
Concentrations of tested compounds in mouse plasma, tumors and adrenal glands: The multiple reaction monitoring (MRM) method was used to detect the concentrations in mouse plasma, tumors and adrenal glands. Mass spectrum: AB Sciex Triple Quad 6500+, liquid chromatography: Shimadzu 40A, column: XBridge BEH C18 2.5 µm 2.1*50mm, ODM208 ion pair: 419.20/176.20, tested compounds ion pair: 429.20/200.20. Acetonitrile was used as precipitant, and propranolol diclofenac were used as the internal standard for sample pretreatment in plasma, tumor, and adrenal tissue. The linear ranges of the standard in plasma tissue was 0.5-1000 ng/mL, the linear ranges of the standard in tumor tissue was 3-6000 ng/mL, and the linear ranges of the standard in adrenal tissue was 5.5-11000 ng/mL.

hERG channels = target: T1, hERG channels (Homo sapiens, UniProt Q12809); experiment: hERG testing, manual whole cell patch clamp; type: cell-based; settings: IC50, hERG tail current, room temperature (~25°C), 0.1-30 µM
T1 construct: host or cells: HEK293
Description: The cells used in this experiment were HEK293 cell lines transfected with hERG cDNA and stably expressing hERG channels (#60187, provided by BPS Bioscience Inc., P3-P23 generations were used in the experiment). The cells were cultured in a culture medium containing the following components: MEM medium, 10% (v/v) inactivated fetal bovine serum, 1 mM sodium pyruvate, 500µg/ml geneticin, 0.1mM non-essential amino acid, 100U/ml penicillin-streptomycin. HEK293 hERG cells were grown in petri dishes containing the aforementioned culture medium and cultured in an incubator at 37°C and 5% CO2, passaged approximately three times a week and maintained at a cell fusion rate between 40% and 80%. […]
The electrophysiological experiment was carried out using a manual patch clamp system (HEKA EPC-10 signal amplifier and digital conversion system, HEKA Electronics, Germany) to record the whole cell currents. […] Only when the hERG potassium current recorded in the previous step achieved stable state under continuous extracellular fluid perfusion within the recording chamber, could the compound to be tested be continuously perfused until the inhibitory effect of the compound on the hERG current reaches a stable state. […]

T1 sequence (Q12809 whole entry): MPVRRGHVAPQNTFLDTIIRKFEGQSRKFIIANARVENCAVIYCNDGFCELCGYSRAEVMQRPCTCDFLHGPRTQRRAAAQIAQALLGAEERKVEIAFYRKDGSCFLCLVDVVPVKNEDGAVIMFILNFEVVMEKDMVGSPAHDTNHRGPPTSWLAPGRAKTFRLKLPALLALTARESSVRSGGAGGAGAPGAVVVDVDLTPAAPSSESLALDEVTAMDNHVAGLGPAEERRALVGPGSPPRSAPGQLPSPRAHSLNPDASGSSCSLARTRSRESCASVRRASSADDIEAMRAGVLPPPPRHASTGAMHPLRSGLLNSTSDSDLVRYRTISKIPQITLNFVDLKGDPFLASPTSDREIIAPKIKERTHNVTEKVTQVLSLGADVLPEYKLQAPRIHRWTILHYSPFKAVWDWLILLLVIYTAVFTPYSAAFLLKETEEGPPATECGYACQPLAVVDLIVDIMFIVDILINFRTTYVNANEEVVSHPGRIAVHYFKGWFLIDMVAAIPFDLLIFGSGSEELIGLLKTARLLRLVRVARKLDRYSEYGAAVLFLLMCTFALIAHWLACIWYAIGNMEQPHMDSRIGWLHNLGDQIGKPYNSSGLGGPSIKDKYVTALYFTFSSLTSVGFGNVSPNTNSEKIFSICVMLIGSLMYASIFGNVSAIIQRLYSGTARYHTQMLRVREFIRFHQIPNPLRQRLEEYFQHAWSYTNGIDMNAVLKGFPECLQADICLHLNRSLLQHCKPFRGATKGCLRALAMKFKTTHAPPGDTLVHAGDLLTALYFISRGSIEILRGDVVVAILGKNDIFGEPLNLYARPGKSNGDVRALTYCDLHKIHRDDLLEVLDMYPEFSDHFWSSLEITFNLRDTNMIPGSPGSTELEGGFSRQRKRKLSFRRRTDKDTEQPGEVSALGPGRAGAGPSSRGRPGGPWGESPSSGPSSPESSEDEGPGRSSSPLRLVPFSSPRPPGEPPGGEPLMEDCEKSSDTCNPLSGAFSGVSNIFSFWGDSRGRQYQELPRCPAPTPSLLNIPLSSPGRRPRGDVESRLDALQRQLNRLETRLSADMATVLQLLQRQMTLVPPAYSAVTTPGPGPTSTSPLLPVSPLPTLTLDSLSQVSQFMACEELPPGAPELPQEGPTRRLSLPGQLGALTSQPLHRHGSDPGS

SMILES | concentration of progesterone in the adrenal glands, relative to ODM-208 ([1]; adrenal glands, fraction of the ODM-208 group) | secretion of testosterone, progesterone and corticosterone in tumors and adrenal glands (in words) [1] | concentration of testosterone in the tumors, relative to the ODM-208 group ([1]; tumors, fraction of the ODM-208 group) | drug concentration in adrenal glands relative to ODM-208 [2] [fold] | drug concentration in plasma relative to ODM-208 [2] [fold] | drug concentration in tumors relative to ODM-208 [2] [fold] | IC50 (hERG channels) [µM] | secretion of progesterone in the adrenal glands (in words) ([1]; adrenal glands of mice, vs control group)
COc1cc(CN2Cc3ccccc3C2)ccc1CCC1CCN(S(C)(=O)=O)CC1 [compound 53] | 1/4 | significantly inhibited | 1/8 | 80 | 3 | 10 |  | 
Cn1c(CN2Cc3ccccc3C2)c(F)cc(C=CC2CCN(C(=O)CC#N)CC2)c1=O [compound 112] |  |  |  |  |  |  | > 30 | 
Cn1c(CN2Cc3ccccc3C2)c(F)cc(CCC2CCN(S(C)(=O)=O)CC2)c1=O [compound 72] |  | significantly inhibited |  | 3.3 | 1.6 | 3.6 | > 30 | significant inhibitory effect
